Test results from ChEMBL document CHEMBL1201862, “PubChem BioAssay data set” (2004).
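1) Cells in 96-well plates. 2) Compound, 48 h, 5 concentrations. 3) Linear interpolation between surrounding doses. 4) Unreached endpoint = highest concentration. At the GI50, growth is halved.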 Activity calls are given as the source filed them. No stated cut-off is given here; in the data, active = GI50 up to about 1.1 µM and inactive = higher.

Columns and labels:
Assay in all cases: DTP human tumour cell line panel, 48 h
HCC 2998 = system: HCC 2998
RXF 393 = system: RXF 393
U-251 = system: U-251
SF-539 = system: SF-539
MOLT-4 = system: MOLT-4
T47D = system: T47D
NCI-H522 = system: NCI-H522
MDA-MB-231 = system: MDA-MB-231
M14 = system: M14
MDA-N = system: MDA-N
MCF7 = system: MCF7
ACHN = system: ACHN
OVCAR-3 = system: OVCAR-3
SK-OV-3 = system: SK-OV-3
A549 = system: A549
TK-10 = system: TK-10
SR = system: SR
SNB-19 = system: SNB-19
NCI-H460 = system: NCI-H460
DU-145 = system: DU-145

Measured: GI50

COC(=O)c1c2c(cc3c1CC1(Cc4cc5c(c(C=O)c4C1)CCCC5)C3)CCCC2 (centres undefined)
inactive: HCC 2998 39 µM | RXF 393 32.7 µM | U-251 43.8 µM | SF-539 74.8 µM | MOLT-4 55.1 µM | T47D 45.3 µM | NCI-H522 32.1 µM | MDA-MB-231 32.7 µM | M14 > 100 µM | MDA-N 89.3 µM | MCF7 27 µM | ACHN 23.9 µM | OVCAR-3 29.9 µM | SK-OV-3 > 100 µM | A549 33.5 µM | TK-10 97.9 µM | SR 36.8 µM

CC1=C2C(=O)NN=C2CCN1c1ccc(Br)cc1
inactive: SNB-19 > 100 µM | NCI-H460 > 100 µM | U-251 > 100 µM | SF-539 > 100 µM | MOLT-4 9.62 µM | T47D 70.3 µM | DU-145 > 100 µM | NCI-H522 > 100 µM | MDA-MB-231 > 100 µM | M14 > 100 µM | MDA-N > 100 µM | MCF7 > 100 µM | ACHN > 100 µM | OVCAR-3 > 100 µM | SK-OV-3 > 100 µM | A549 > 100 µM | TK-10 > 100 µM

O=C(O)c1ccccc1/C=C1\Cc2ccccc2C1=O
inactive: SNB-19 > 100 µM | HCC 2998 > 100 µM | NCI-H460 > 100 µM | RXF 393 > 100 µM | U-251 > 100 µM | SF-539 > 100 µM | MOLT-4 > 100 µM | T47D > 100 µM | DU-145 > 100 µM | NCI-H522 > 100 µM | M14 > 100 µM | MDA-N > 100 µM | MCF7 > 100 µM | ACHN > 100 µM | OVCAR-3 > 100 µM | A549 > 100 µM | TK-10 > 100 µM | SR > 100 µM

COCN1C(=O)[C@@H]2C[C@@H](OC/C=C/CBr)CN2C(=O)c2ccccc21
inactive: SNB-19 21.3 µM | RXF 393 14 µM | U-251 14.5 µM | SF-539 17.5 µM | MOLT-4 17.7 µM | T47D 19.5 µM | DU-145 19.4 µM | NCI-H522 5.68 µM | MDA-MB-231 17.5 µM | M14 16.1 µM | MDA-N 15.8 µM | MCF7 5.78 µM | ACHN 19.9 µM | SK-OV-3 33.3 µM | A549 17.1 µM | TK-10 19.3 µM

Clc1ccc(-c2nnc(C34CC5CC(CC(C5)C3)C4)o2)cc1
inactive: SNB-19 > 100 µM | HCC 2998 > 100 µM | NCI-H460 > 100 µM | RXF 393 > 100 µM | U-251 > 100 µM | SF-539 > 100 µM | MOLT-4 > 100 µM | T47D > 100 µM | DU-145 > 100 µM | NCI-H522 > 100 µM | MDA-MB-231 > 100 µM | M14 > 100 µM | MDA-N > 100 µM | ACHN > 100 µM | OVCAR-3 > 100 µM | SK-OV-3 > 100 µM | A549 > 100 µM | SR > 100 µM

CC1(O)C(=O)OC2CC([C@]3(O)CCC4[C@@H]5C[C@H]6O[C@]67[C@@H](O)C=CC(=O)[C@]7(C)C5CC[C@@]43C)C1(C)C2 (some centres undefined)
inactive: SNB-19 47.2 µM | HCC 2998 42 µM | NCI-H460 30.5 µM | RXF 393 3.63 µM | U-251 23.5 µM | SF-539 18.2 µM | MOLT-4 2.89 µM | T47D 5.97 µM | DU-145 26.5 µM | NCI-H522 1.82 µM | MDA-MB-231 16.7 µM | M14 12.6 µM | MDA-N 12.3 µM | ACHN 18.8 µM | OVCAR-3 15.8 µM | SK-OV-3 47.9 µM | A549 38.7 µM | TK-10 8.73 µM | SR 2.69 µM

CN1C/C(=C\c2cccs2)C(O)/C(=C/c2cccs2)C1 (centres undefined)
inactive: SNB-19 > 100 µM | HCC 2998 41.1 µM | NCI-H460 > 100 µM | RXF 393 > 100 µM | U-251 > 100 µM | MOLT-4 25.2 µM | T47D 25.8 µM | DU-145 > 100 µM | NCI-H522 35.1 µM | MDA-MB-231 > 100 µM | M14 > 100 µM | MDA-N > 100 µM | MCF7 48.5 µM | ACHN > 100 µM | OVCAR-3 > 100 µM | SK-OV-3 > 100 µM | A549 > 100 µM | TK-10 > 100 µM

CCCCCCNC(=O)c1cc(C#Cc2cc(OC)ccc2OC)ccc1OC
inactive: SNB-19 > 100 µM | HCC 2998 1.93 µM | NCI-H460 8.73 µM | U-251 > 100 µM | MOLT-4 4.84 µM | T47D 2.31 µM | NCI-H522 6.15 µM | MDA-MB-231 > 100 µM | M14 17.5 µM | MDA-N 3.22 µM | MCF7 > 100 µM | ACHN > 100 µM | SK-OV-3 > 100 µM | A549 > 100 µM | TK-10 > 100 µM | SR 3.18 µM
